According to patent publication US11925629B2, “Heterocyclic inhibitors of ERK1 and ERK2 and their use in the treatment of cancer” (Asana Biosciences, LLC, priority 2015, dated 2024):

Key:
Assay type in all cases: cell-based, human
[1] = test system: HT-29 (colorectal carcinoma, B-RafV600E) cells; experiment: Cell proliferation (Alamar Blue) assay, HT-29; settings: Homo sapiens, HT-29, HT29 cells
How it was run: (§1)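 5000 cells/well, 16-24 h attach; cpd 0.0005-10 uM (3-fold dilns) x 72 h, 37° C./5% CO2; Alamar Blue 1× 1-3 h; fluor 540/590 nm; IC50, variable-slope sigmoid.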

[2] = test system: HCT116 (colorectal carcinoma, K Ras G13D) cells; experiment: Cell proliferation (Alamar Blue) assay, HCT116; settings: Homo sapiens, HCT-116, HCT116 cells
How it was run: as §1

[3] = test system: phosphorylation of RSK1(S380) (the downstream target of ERK1/2); experiment: Phospho-RSK1(S380) ELISA assay in HT-29 cells; settings: Homo sapiens, HT-29, HT29 cells, phospho-RSK1(S380); read-out: Mechanistic Cell Assay RSK1 Phos HT29 IC50
How it was run: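 IC50 values derive from a variable-slope sigmoidal fit of sandwich-ELISA signal (450 nm) for RSK1 Ser380 phosphorylation. The cells were B-RafV600E HT-29 colorectal line, exposed to serially diluted compound for 2 h after overnight seeding, then lysed at 4° C.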

| IC50 [1] | IC50 [2] | IC50 [3] | Compound |
| --- | --- | --- | --- |
| 0.5 to 2.5 µM | 0.5 to 2.5 µM | > 2.5 µM | Cc1cnc(Nc2ccc3c(c2)OC(F)(F)O3)nc1-n1ccc(C(=O)NC(CN)c2cccc(Cl)c2)c1 (stereo not drawn) [Cmpd 136, N-(2-amino-1-(3-chloro-phenyl)ethyl)-1-(2-((2,2-difluoro-benzo[d][1,3]dioxol-5-yl)amino)-5-methyl-pyrimidin-4-yl)-1H-pyrrole-3-carboxamide] |
| > 2.5 µM | > 2.5 µM | > 2.5 µM | Cc1cnc(Nc2ccc(F)cc2)nc1-n1cc(C(=O)NC(CO)c2ccccc2)nc1C (stereo not drawn) [Cmpd 153, 1-(2-((4-fluoro-phenyl)amino)-5-methyl-pyrimidin-4-yl)-N-(2-hydroxy-1-phenylethyl)-2-methyl-1H-imidazole-4-carboxamide] |
| > 2.5 µM | > 2.5 µM | > 2.5 µM | O=C(Nc1cnn(-c2ccnc(Nc3ccc4c(c3)OCO4)n2)c1)N[C@H](CO)c1cccc(Cl)c1 [Example 21, (S)-1-(1-(2-(benzo[d][1,3]dioxol-5-ylamino)-pyrimidin-4-yl)-1H-pyrazol-4-yl)-3-(1-(3-chlorophenyl)-2-hydroxyethyl) urea] |
| 0.25 to 0.5 µM | 0.5 to 2.5 µM | 0.5 to 2.5 µM | Cc1cnc(Nc2ccc(F)cc2Cl)nc1-n1ccc(C(=O)NC(CO)c2cccc(Cl)c2)c1 (stereo not drawn) [Example 31, 1-(2-((2-chloro-4-fluorophenyl)amino)-5-methyl-pyrimidin-4-yl)-N-(1-(3-chlorophenyl)-2-hydroxy-ethyl)-1H-pyrrole-3-carboxamide] |
| > 2.5 µM | > 2.5 µM | 0.5 to 2.5 µM | Cc1cnc(Nc2ccc(F)cc2Cl)nc1-n1ccc(C(=O)NC(CO)c2ccccc2)c1 (stereo not drawn) [Example 32, 1-(2-((2-chloro-4-fluorophenyl)amino)-5-methyl-pyrimidin-4-yl)-N-(2-hydroxy-1-phenylethyl)-1H-pyrrole-3-carboxamide] |
| 0.25 to 0.5 µM | 0.25 to 0.5 µM | 0.5 to 2.5 µM | Cc1cnc(Nc2ccc3c(c2)OCO3)nc1-n1ccc(C(=O)NC(CO)c2cccc(Cl)c2)c1 (stereo not drawn) [Example 42, 1-(2-(benzo[d][1,3]dioxol-5-ylamino)-5-methyl-pyrimidin-4-yl)-N-(1-(3-chloro-phenyl)-2-hydroxy-ethyl)-1H-pyrrole-3-carboxamide] |
| 0.1 to 0.25 µM | 0.25 to 0.5 µM | 0.25 to 0.5 µM | Cc1cnc(Nc2ccc3c(c2)OCO3)nc1-n1ccc(C(=O)NC(CO)c2ccccc2)c1 (stereo not drawn) [Example 47, 1-(2-(benzo[d][1,3]dioxol-5-ylamino)-5-methyl-pyrimidin-4-yl)-N-(2-hydroxy-1-phenylethyl)-1H-pyrrole-3-carboxamide] |
| 0.25 to 0.5 µM | 0.5 to 2.5 µM | 0.25 to 0.5 µM | Cc1cnc(Nc2ccc3c(c2)OCO3)nc1-n1cnc(C(=O)N[C@H](CO)c2cccc(Cl)c2)c1 [Example 48, (S)-1-(2-(benzo[d][1,3]dioxol-5-ylamino)-5-methyl-pyrimidin-4-yl)-N-(1-(3-chloro-phenyl)-2-hydroxy-ethyl)-1H-imidazole-4-carboxamide] |
| 0.5 to 2.5 µM | > 2.5 µM | 0.5 to 2.5 µM | Cc1cnc(Nc2ccc3c(c2)OCO3)nc1-n1ccc(C(=O)NC(CO)c2cc(Cl)cc(Cl)c2)c1 (stereo not drawn) [Example 58, 1-(2-(benzo[d][1,3]dioxol-5-ylamino)-5-methyl-pyrimidin-4-yl)-N-(1-(3,5-dichloro-phenyl)-2-hydroxy-ethyl)-1H-pyrrole-3-carboxamide] |
| 0.25 to 0.5 µM | 0.25 to 0.5 µM | 0.25 to 0.5 µM | Cc1cnc(Nc2ccc3c(c2)OCO3)nc1-n1ccc(C(=O)N[C@H](CO)Cc2ccccc2)c1 [Example 59, (S)-1-(2-(benzo[d][1,3]dioxol-5-ylamino)-5-methyl-pyrimidin-4-yl)-N-(1-hydroxy-3-phenyl-propan-2-yl)-1H-pyrrole-3-carboxamide] |
| ≤ 0.1 µM | 0.1 to 0.25 µM | ≤ 0.1 µM | Cc1cnc(Nc2ccc3c(c2)OCO3)nc1-n1ccc(C(=O)N[C@H](CO)c2ccccc2)c1 [Example 60, (S)-1-(2-(benzo[d][1,3]dioxol-5-ylamino)-5-methyl-pyrimidin-4-yl)-N-(2-hydroxy-1-phenylethyl)-1H-pyrrole-3-carboxamide] |
| 0.5 to 2.5 µM | 0.5 to 2.5 µM | 0.5 to 2.5 µM | Cc1cnc(Nc2ccc3c(c2)OC(F)(F)O3)nc1-n1ccc(C(=O)NC(CO)c2cccc(Cl)c2)c1 (stereo not drawn) [Example 62, N-(1-(3-chloro-phenyl)-2-hydroxy-ethyl)-1-(2-((2,2-difluoro-benzo[d][1,3]dioxol-5-yl)amino)-5-methyl-pyrimidin-4-yl)-1H-pyrrole-3-carboxamide] |

Further lines, the compound ahead of its results:

| Compound | IC50 [1] | IC50 [2] | IC50 [3] |
| --- | --- | --- | --- |
| O=C(NC(CO)c1cccc(Cl)c1)c1cn(-c2ccnc(Nc3ccccc3)c2)cn1 (stereo not drawn) [Cmpd 77, N-(1-(3-chloro-phenyl)-2-hydroxy-ethyl)-1-(2-(phenyl-amino)pyridin-4-yl)-1H-imidazole-4-carboxamide] | 0.5 to 2.5 µM | > 2.5 µM | 0.1 to 0.25 µM |
| Cc1cnc(NC2CCOCC2)nc1-n1cnc(C(=O)NCc2cccc(Cl)c2CO)c1 [Cmpd 93, N-(3-chloro-2-(hydroxy-methyl)benzyl)-1-(5-methyl-2-((tetrahydro-2H-pyran-4-yl)amino)-pyrimidin-4-yl)-1H-imidazole-4-carboxamide] | ≤ 0.1 µM | ≤ 0.1 µM | ≤ 0.1 µM |
| CC[C@H](CO)Nc1cc(-n2cnc(C(=O)N[C@H](CO)c3cccc(Cl)c3)c2)ccn1 [Cmpd 105, N-((S)-1-(3-chlorophenyl)-2-hydroxy-ethyl)-1-(2-(((R)-1-hydroxy-butan-2-yl)amino)pyridin-4-yl)-1H-imidazole-4-carboxamide] | > 2.5 µM | > 2.5 µM | 0.1 to 0.25 µM |
| O=C(NC(CO)c1cccc(Cl)c1)c1cn(-c2cc(Nc3ccccc3)ncc2Cl)cn1 (stereo not drawn) [Cmpd 106, 1-(5-chloro-2-(phenyl-amino)pyridin-4-yl)-N-(1-(3-chlorophenyl)-2-hydroxy-ethyl)-1H-imidazole-4-carboxamide] | 0.5 to 2.5 µM | > 2.5 µM | 0.1 to 0.25 µM |
| Cc1cnc(Nc2ccc(F)cc2)cc1-n1ccc(C(=O)NC(CN)c2cccc(Cl)c2)c1 (stereo not drawn) [Cmpd 159, N-(2-amino-1-(3-chloro-phenyl)ethyl)-1-(2-((4-fluoro-phenyl)amino)-5-methyl-pyridin-4-yl)-1H-pyrrole-3-carboxamide] | 0.5 to 2.5 µM | 0.5 to 2.5 µM | 0.5 to 2.5 µM |
| O=C(NC(CO)c1cccc(Cl)c1)c1cn(-c2ccnc(Nc3ccc4c(c3)CCO4)c2)cn1 (stereo not drawn) [Cmpd 163, N-(1-(3-chloro-phenyl)-2-hydroxy-ethyl)-1-(2-((2,3-dihydro-benzofuran-5-yl)amino)pyridin-4-yl)-1H-imidazole-4-carboxamide] | 0.5 to 2.5 µM | > 2.5 µM | 0.1 to 0.25 µM |
| Cc1cnc(NC2CCOCC2)nc1-n1cnc(C(=O)N[C@H](CN)c2cccc(Cl)c2)c1 [Cmpd 225a] | ≤ 0.1 µM | ≤ 0.1 µM | ≤ 0.1 µM |
| Cc1cnc(N[C@H]2CCOC2)nc1-n1cnc(C(=O)N[C@H](CO)c2cccc(Cl)c2)c1 [Compound 192, N—((S)-1-(3-Chlorophenyl)-2-hydroxyethyl)-1-(5-methyl-2-(((S)-tetrahydrofuran-3-yl)amino)pyrimidin-4-yl)-1H-imidazole-4-carboxamide] | 0.25 to 0.5 µM | > 2.5 µM | 0.25 to 0.5 µM |
| Cc1cnc(NC2CCOCC2)nc1-n1cnc(C(=O)NC(CO)c2cccc(Cl)c2)c1 (stereo not drawn) [Compound 201, N-(1-(3-chlorophenyl)-2-hydroxyethyl)-1-(5-methyl-2-((tetrahydro-2H-pyran-4-yl)amino)pyrimidin-4-yl)-1H-imidazole-4-carboxamide] | ≤ 0.1 µM | 0.5 to 2.5 µM | 0.1 to 0.25 µM |
| Cc1cnc(NC2CCOCC2)nc1-n1cnc(C(=O)N[C@H](CO)c2cccc(Cl)c2)c1 [Compound 211, (S)—N-(1-(3-chlorophenyl)-2-hydroxyethyl)-1-(5-methyl-2-((tetrahydro-2H-pyran-4-yl)amino)pyrimidin-4-yl)-1H-imidazole-4-carboxamide] | ≤ 0.1 µM | 0.1 to 0.25 µM | ≤ 0.1 µM |
| O=C(Nc1cnn(-c2ccnc(Nc3ccccc3)n2)c1)N[C@H](CO)c1cccc(Cl)c1 [Example 12, (S)-1-(1-(3-chlorophenyl)-2-hydroxy-ethyl)-3-(1-(2-(phenyl-amino)pyrimidin-4-yl)-1H-pyrazol-4-yl) urea] | > 2.5 µM | > 2.5 µM | > 2.5 µM |
| CN(C(=O)Nc1cnn(-c2ccnc(NC3CC3)n2)c1)[C@H](CO)c1ccccc1 [Example 18, (S)-3-(1-(2-(cyclopropyl-amino)pyrimidin-4-yl)-1H-pyrazol-4-yl)-1-(2-hydroxy-1-phenylethyl)-1-methylurea] | > 2.5 µM | > 2.5 µM | > 2.5 µM |
| Cc1cnc(Nc2cccnc2)nc1-n1cc(NC(=O)N[C@H](CO)c2cccc(Cl)c2)cn1 [Example 23, (S)-1-(1-(3-chlorophenyl)-2-hydroxy-ethyl)-3-(1-(5-methyl-2-(pyridin-3-yl-amino)pyrimidin-4-yl)-1H-pyrazol-4-yl)urea] | 0.5 to 2.5 µM | > 2.5 µM | > 2.5 µM |
| C#Cc1cccc(Nc2nccc(-n3cc(NC(=O)N[C@H](CO)c4cccc(Cl)c4)cn3)n2)c1 [Example 38, (S)-1-(1-(3-chlorophenyl)-2-hydroxy-ethyl)-3-(1-(2-((3-ethynyl-phenyl)amino)pyrimidin-4-yl)-1H-pyrazol-4-yl)urea] | > 2.5 µM | > 2.5 µM | > 2.5 µM |
